# Measurements reported in patent publication US4491631A, “Assay method for lipid component, assay composition, and process for production of enzyme used therefor” (Toyo Jozo Kabushiki Kaisha, priority 1981, dated 1985).
# Target: T1, 3-hydroxyacyl-CoA dehydrogenase activity of multi-active enzyme (Pseudomonas fragi, UniProt P28793)
# T1 construct: Crude enzyme was prepared from microbial cells of Pseudomonas fragi B-0771; endogenous in cells; host or cells: Pseudomonas fragi B-0771 FERM-P No. 5701 (enzyme extracted with lysozyme and purified from its own cells, not recombinant)
# Assay: Substrate specificity of 3-hydroxyacyl-CoA dehydrogenase activity
# Type: biochemical, Pseudomonas fragi B-0771
# Conditions: 3-hydroxyacyl-CoA used as substrate of 3-hydroxyacyl-CoA dehydrogenase activity
# Protocol: (§1) The enzyme solution (50 μl) was added to the above reaction mixture, which was preincubated at 27° C. for 2 minutes, and the mixture was incubated at 37° C. for 10 minutes. 0.5% sodium dodecyl sulfate (2.0 ml) was added to stop the reaction and the absorbency was measured at 550 nm (ΔA550) One unit (1 U) is defined as the amount of enzyme which generates 1 μmole of reduced NAD in one minute. Enzyme activity is defined by the following equation: [formula] (c) Assay method of 3-ketoacyl-CoA thiolase activity:
# 3-hydroxyacyl-CoA dehydrogenase activity was measured by using the following embodiments of 3-hydroxyacyl-CoA: […]
# T1 sequence (P28793 whole entry): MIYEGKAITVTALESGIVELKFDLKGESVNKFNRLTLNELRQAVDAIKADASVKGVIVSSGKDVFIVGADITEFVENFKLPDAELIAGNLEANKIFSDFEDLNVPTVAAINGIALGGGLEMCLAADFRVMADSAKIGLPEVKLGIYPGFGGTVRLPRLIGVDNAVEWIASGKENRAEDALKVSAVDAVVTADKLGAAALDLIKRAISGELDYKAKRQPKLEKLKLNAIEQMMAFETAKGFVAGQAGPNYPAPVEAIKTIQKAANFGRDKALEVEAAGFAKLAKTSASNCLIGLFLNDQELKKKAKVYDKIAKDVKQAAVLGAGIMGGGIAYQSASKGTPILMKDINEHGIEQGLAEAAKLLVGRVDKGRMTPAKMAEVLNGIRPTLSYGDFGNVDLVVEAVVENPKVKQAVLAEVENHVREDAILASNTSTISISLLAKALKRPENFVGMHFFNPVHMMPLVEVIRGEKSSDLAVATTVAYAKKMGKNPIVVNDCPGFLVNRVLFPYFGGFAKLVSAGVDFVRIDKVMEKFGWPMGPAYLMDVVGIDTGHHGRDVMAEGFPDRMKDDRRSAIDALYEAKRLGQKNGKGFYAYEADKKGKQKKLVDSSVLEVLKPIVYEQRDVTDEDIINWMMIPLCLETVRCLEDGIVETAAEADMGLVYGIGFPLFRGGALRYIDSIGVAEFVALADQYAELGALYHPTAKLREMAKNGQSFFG
# T1 sequence (P28790 whole entry partner): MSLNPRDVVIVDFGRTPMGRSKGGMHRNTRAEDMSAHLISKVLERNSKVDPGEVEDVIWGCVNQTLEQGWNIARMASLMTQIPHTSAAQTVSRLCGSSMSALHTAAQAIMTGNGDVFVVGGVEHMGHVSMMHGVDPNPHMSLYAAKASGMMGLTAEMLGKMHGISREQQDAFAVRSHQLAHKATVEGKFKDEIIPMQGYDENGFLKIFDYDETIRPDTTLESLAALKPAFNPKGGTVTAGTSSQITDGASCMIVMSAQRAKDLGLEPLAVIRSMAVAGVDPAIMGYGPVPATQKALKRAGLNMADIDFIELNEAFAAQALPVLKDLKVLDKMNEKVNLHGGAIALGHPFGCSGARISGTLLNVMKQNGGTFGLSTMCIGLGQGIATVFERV
row,Molecule,Relative activity
1,CCCCCCCC/C=C\CCCCCC(O)CC(=O)SCCNC(=O)CCNC(=O)[C@H](O)C(C)(C)COP(=O)(O)OP(=O)(O)OC[C@H]1O[C@@H](n2cnc3c(N)ncnc32)[C@H](O)[C@@H]1OP(=O)(O)O (some centres unmarked) [3-hydroxyoleyl-CoA],57.5%
2,CCCCCCCCCCCC(O)CC(=O)SCCNC(=O)CCNC(=O)[C@H](O)C(C)(C)COP(=O)(O)OP(=O)(O)OC[C@H]1O[C@@H](n2cnc3c(N)ncnc32)[C@H](O)[C@@H]1OP(=O)(O)O (some centres unmarked) [3-hydroxymyristoyl-CoA],98.0%
3,CCCCCCCC(O)CC(=O)SCCNC(=O)CCNC(=O)[C@H](O)C(C)(C)COP(=O)(O)OP(=O)(O)OC[C@H]1O[C@@H](n2cnc3c(N)ncnc32)[C@H](O)[C@@H]1OP(=O)(O)O (some centres unmarked) [3-hydroxycapryl-CoA],99.0%
4,CCCCCCCCCCCCCC(O)CC(=O)SCCNC(=O)CCNC(=O)[C@H](O)C(C)(C)COP(=O)(O)OP(=O)(O)OC[C@H]1O[C@@H](n2cnc3c(N)ncnc32)[C@H](O)[C@@H]1OP(=O)(O)O (some centres unmarked) [3-hydroxypalmitoyl-CoA],75.5%
5,CCCCCC(O)CC(=O)SCCNC(=O)CCNC(=O)[C@H](O)C(C)(C)COP(=O)(O)OP(=O)(O)OC[C@H]1O[C@@H](n2cnc3c(N)ncnc32)[C@H](O)[C@@H]1OP(=O)(O)O (some centres unmarked) [3-hydroxycaprylyl-CoA],88.1%
6,CCCC(O)CC(=O)SCCNC(=O)CCNC(=O)[C@H](O)C(C)(C)COP(=O)(O)OP(=O)(O)OC[C@H]1O[C@@H](n2cnc3c(N)ncnc32)[C@H](O)[C@@H]1OP(=O)(O)O (some centres unmarked) [3-hydroxycaproyl-CoA],56.5%
7,CCCCCCCCCCCCCCCC(O)CC(=O)SCCNC(=O)CCNC(=O)[C@H](O)C(C)(C)COP(=O)(O)OP(=O)(O)OC[C@H]1O[C@@H](n2cnc3c(N)ncnc32)[C@H](O)[C@@H]1OP(=O)(O)O (some centres unmarked) [3-hydroxystearyl-CoA],30.5%
8,CCCCCCCCCC(O)CC(=O)SCCNC(=O)CCNC(=O)[C@H](O)C(C)(C)COP(=O)(O)OP(=O)(O)OC[C@H]1O[C@@H](n2cnc3c(N)ncnc32)[C@H](O)[C@@H]1OP(=O)(O)O (some centres unmarked) [3-hydroxylauryl-CoA],100.0%
9,CCCCCCCCCCCCCCCCCC(O)CC(=O)SCCNC(=O)CCNC(=O)[C@H](O)C(C)(C)COP(=O)(O)OP(=O)(O)OC[C@H]1O[C@@H](n2cnc3c(N)ncnc32)[C@H](O)[C@@H]1OP(=O)(O)O (some centres unmarked) [3-hydroxyarachidoyl-CoA],9.5%
10,CC/C=C\C/C=C\C/C=C\CCCCCC(O)CC(=O)SCCNC(=O)CCNC(=O)[C@H](O)C(C)(C)COP(=O)(O)OP(=O)(O)OC[C@H]1O[C@@H](n2cnc3c(N)ncnc32)[C@H](O)[C@@H]1OP(=O)(O)O (some centres unmarked) [3-hydroxylinolenyl-CoA],99.0%

# Target: T1, 3-hydroxyacyl-CoA dehydrogenase activity of multi-active enzyme
# Assay: Effect of metal ions on 3-hydroxyacyl-CoA dehydrogenase activity
# Type: biochemical, Pseudomonas fragi B-0771
# Conditions: 1 mM metal ion; control 100; 10 min
# Protocol: as §1
# (9) Effect of metal ions:
# The effect of metal ions was measured on 3-hydroxyacyl-CoA dehydrogenase activity.
row,Molecule,Relative activity
1,[Cl][Ni][Cl] [NiCl2],95%
2,[Cl][Cu][Cl] [CuCl2],12%
3,[Cl-].[Cl-].[Mg+2] [MgCl2],113%
4,[Ca+2].[Cl-].[Cl-] [CaCl 2],113%
5,[Cl-].[Cl-].[Zn+2] [ZnCl2],25%
6,[Cl-].[Cl-].[Co+2] [CoCl2],34%
7,[Cl][Mn][Cl] [MnCl2],32%
8,[Ba+2].[Cl-].[Cl-] [BaCl2],106%

# Target: T1, 3-hydroxyacyl-CoA dehydrogenase activity of multi-active enzyme
# Assay: Effect of surface active agents on 3-hydroxyacyl-CoA dehydrogenase activity
# Type: biochemical, Pseudomonas fragi B-0771
# Conditions: 0.1% surface active agent; control 100; 10 min
# Protocol: as §1
# (10) Effect of surface active agents:
# The effect of surface active agents was measured on 3-hydroxyacyl-CoA dehydrogenase activity.
row,Molecule,Relative activity
1,Triton X-100,96%
2,laurylbenzene sulfonate,0%

# Same assay, conditions: 10 min; 0.1% surface active agent; control 100; read-out: Relative activity
row,Molecule,activity at 0.1 %
1,CCCCCCCCCCCCCCCC[N+](C)(C)C [cetyltrimethylammonium chloride],0%
2,CCCCCCCCCCCCOS(=O)(=O)[O-].[Na+] [sodium lauryl sulfate],0%
3,C[C@H](CCC(=O)O)[C@H]1CC[C@H]2[C@@H]3CC[C@@H]4C[C@H](O)CC[C@]4(C)[C@H]3C[C@H](O)[C@]12C [sodium deoxycholate],2%
